Source: article PMC8812798 (Emerging Microbes & Infections, 2021)
Read-outs that look alike come from different tables or passages of the source. Where a SMILES comes first, the peptide text is derived from it. The star is where a group is joined. Succinyl(4-O-cholesteryl) = CC(C)CCC[C@@H](C)[C@H]1CC[C@H]2[C@@H]3CC=C4C[C@@H](OC(=O)CCC(=O)*)CC[C@]4(C)[C@H]3CC[C@]12C

Key:
[1] = system: RSV pseudovirus; conditions: 48 h
[2] = system: primary HIV-1 Envs; assay: DSP-based cell–cell fusion assay, panel of primary HIV-1 Envs
[3] = system: H7N9 pseudovirus; conditions: 48 h
[4] = system: SIV239 pseudovirus; conditions: 48 h
[5] = system: SIVPBJ pseudovirus; conditions: 48 h
[6] = system: HEK293T cells
[7] = system: H5N1 pseudovirus; conditions: 48 h
[8] = system: HIV-1NL4-3 pseudovirus
[9] = system: TZM-bl cells
[10] = system: HIV-2ST; conditions: read-out: IC50, inhibition of HIV-2ST infection; Fig 2B; replication-competent virus, TZM-bl cells, 48 h; mean IC50, repeated three times
[11] = system: gp41 HR1-derived peptides (N42, N36, and N38); assay: Size-exclusion chromatography of EK1 with gp41 HR1-derived peptides; type: binding, HIV-1; conditions: molar ratio 1:1, 0.2 mM, 0.05M sodium phosphate pH 7.2, 37°C 30 min; Superdex-75
Description: The binding between EK1 peptide and a target mimic peptide derived from the HR1 sequence of gp41 was analysed by size-exclusion chromatography. In brief, EK1 was mixed with N42, N36 or N38 (molar ratio of 1:1) in 0.05M sodium phosphate (pH 7.2) at a final concentration of 0.2 mM, and then incubated at 37°C for 30 min. The mixture was applied to the Superdex-75 10/300 GL (GE Healthcare, Piscataway, NJ, USA) equilibrated with 50 mM sodium phosphate and eluted at 0.8 ml/min, and fractions were monitored at 214 nm.

[12] = system: HIV-1NL4-3 Env; type: cell-based; conditions: Table 2; HIV-1NL4-3 Env-mediated cell–cell fusion; triplicate, repeated three times; read-out: IC50 ± SD, Env cell fusion
[13] = system: HIV-2ROD; conditions: read-out: IC50, inhibition of HIV-2ROD infection; Fig 2A; replication-competent virus, TZM-bl cells, 48 h; mean IC50, repeated three times
[14] = system: SARS-CoV-2; assay: Inhibition of SARS-CoV-2 by HIV-1 fusion inhibitors (Table S1); type: cell-based; conditions: at a concentration as high as 25 or 50 μM (Table S1)
[15] = system: HIV-1; assay: Inhibition of HIV-1 by HIV-1 fusion inhibitors (Table S1); type: cell-based; conditions: Table S1, in words only
[16] = HIV-1 Env 246_F3_C10_2, subtype A/C, triplicate, repeated three times, read-out: Cell fusion (IC50±SD)
[17] = HIV-1 Env 398-F1_F6_20, subtype A, triplicate, repeated three times, read-out: Cell fusion (IC50±SD)
[18] = HIV-1 Env BJOX002000.03.2, subtype B/C, triplicate, repeated three times, read-out: Cell fusion (IC50±SD)
[19] = HIV-1 Env CE1176_A3, subtype C, triplicate, repeated three times, read-out: Cell fusion (IC50±SD)
[20] = HIV-1 Env CE703010217_B6, subtype C, triplicate, repeated three times, read-out: Cell fusion (IC50±SD)
[21] = HIV-1 Env CH119.10, subtype B/C, triplicate, repeated three times, read-out: Cell fusion (IC50±SD)
[22] = HIV-1 Env CNE8, subtype A/E, triplicate, repeated three times, read-out: Cell fusion (IC50±SD)
[23] = HIV-1 Env CNE55, subtype A/E, triplicate, repeated three times, read-out: Cell fusion (IC50±SD)
[24] = HIV-1 Env HIV_25710-2.43, subtype C, triplicate, repeated three times, read-out: Cell fusion (IC50±SD)
[25] = HIV-1 Env SF162, subtype B, triplicate, repeated three times, read-out: Cell fusion (IC50±SD)
[26] = HIV-1 Env TRO.11, subtype B, triplicate, repeated three times, read-out: Cell fusion (IC50±SD)
[27] = HIV-1 Env X1632-S2-B10, subtype G, triplicate, repeated three times, read-out: Cell fusion (IC50±SD)
[28] = HIV-1 Env X2278_C2_B6, subtype B, triplicate, repeated three times, read-out: Cell fusion (IC50±SD)
[29] = Mean over 14 primary HIV-1 Envs of Table 1, read-out: Cell fusion, mean IC50 over the panel

Compound | IC50 [1] [nM] | IC50 [2, 16] [nM] | IC50 [2, 17] [nM] | IC50 [2, 18] [nM] | IC50 [2, 19] [nM] | IC50 [2, 20] [nM] | IC50 [2, 21] [nM] | IC50 [2, 22] [nM] | IC50 [2, 23] [nM] | IC50 [2, 24] [nM] | IC50 [2, 25] [nM] | IC50 [2, 26] [nM] | IC50 [2, 27] [nM] | IC50 [2, 28] [nM] | IC50 [4] [nM] | IC50 [5] [nM] | Cytotoxicity on HEK293T cells [6] | Cytotoxicity on TZM-bl cells [9] | Inhibitory activity against SARS-CoV-2 [14] | Inhibition of HIV-1 [15] | further results
CC[C@H](C)[C@H](NC(=O)[C@H](C)NC(=O)[C@H](CCC(=O)O)NC(=O)[C@H](CCC(=O)O)NC(=O)[C@H](CC(C)C)NC(=O)[C@H](CCCCN)NC(=O)[C@H](CCCCN)NC(=O)[C@H](CCSC)NC(=O)[C@H](CCC(=O)O)NC(=O)[C@H](Cc1ccc(O)cc1)NC(=O)[C@H](CCC(=O)O)NC(=O)[C@H](CC(C)C)NC(=O)[C@H](CC(=O)O)NC(=O)[C@H](CC(C)C)NC(=O)[C@H](Cc1ccccc1)NC(=O)[C@@H](NC(=O)[C@@H](NC(=O)[C@H](CC(N)=O)NC(=O)[C@@H](NC(=O)[C@H](CCC(N)=O)NC(=O)[C@H](CC(=O)O)NC(=O)[C@H](CC(C)C)NC(=O)[C@H](CO)NC(C)=O)[C@@H](C)CC)C(C)C)[C@@H](C)O)C(=O)N[C@@H](CCCCN)C(=O)N[C@@H](CCCCN)C(=O)N[C@@H](CC(C)C)C(=O)N[C@@H](CCC(=O)O)C(=O)N[C@@H](CCC(=O)O)C(=O)N[C@@H](CO)C(=O)N[C@@H](Cc1ccc(O)cc1)C(=O)N[C@H](C(=O)N[C@@H](CC(=O)O)C(=O)N[C@@H](CC(C)C)C(=O)N[C@@H](CCCCN)C(=O)N[C@@H](CCC(=O)O)C(=O)N[C@@H](CC(C)C)C(=O)N[C@@H](CCCCNC(=O)CCC(=O)O[C@H]1CC[C@@]2(C)C(=CC[C@H]3[C@@H]4CC[C@H]([C@H](C)CCCC(C)C)[C@@]4(C)CC[C@@H]32)C1)C(N)=O)[C@@H](C)CC [EK1V1] (Ac-SLDQINVTFLDLEYEMKKLEEAIKKLEESYIDLKELK(Succinyl(4-O-cholesteryl))-NH2; N-terminus and C-terminus assumed) | > 25000 | 50 ± 10 | 170 ± 10 | 70 ± 10 | 350 ± 100 | 40 ± 10 | 20 ± 4 | 490 ± 90 | 130 ± 30 | 170 ± 30 | 50 ± 10 | 680 ± 170 | 40 ± 10 | 50 ± 4 | 1430 | 310 | none of them at a concentration of 10 or 25 μM showed significant cytotoxic effects | none of them at a concentration of 10 or 25 μM showed significant cytotoxic effects | – | – | IC50 [2, 29]: 170 nM; IC50 [3]: > 25000 nM; IC50 [7]: > 25000 nM; n-fold [8]: 1; IC50 ([8]; 1NL4-3 pseudovirus, 48 h): 39.8 nM; IC50 ([8]; Table 3, […], mean ± SD, triplicate, repeated three times): 40 ± 2 nM
CC[C@H](C)[C@H](NC(=O)[C@H](C)NC(=O)[C@H](CCC(=O)O)NC(=O)[C@H](CCC(=O)O)NC(=O)[C@H](CC(C)C)NC(=O)[C@H](CCCCN)NC(=O)[C@H](CCCCN)NC(=O)[C@H](CCSC)NC(=O)[C@H](CCC(=O)O)NC(=O)[C@H](Cc1ccc(O)cc1)NC(=O)[C@H](CCC(=O)O)NC(=O)[C@H](CC(C)C)NC(=O)[C@H](CC(=O)O)NC(=O)[C@H](CC(C)C)NC(=O)[C@H](Cc1ccccc1)NC(=O)[C@@H](NC(=O)[C@@H](NC(=O)[C@H](CC(N)=O)NC(=O)[C@@H](NC(=O)[C@H](CCC(N)=O)NC(=O)[C@H](CC(=O)O)NC(=O)[C@H](CC(C)C)NC(=O)[C@H](CO)NC(C)=O)[C@@H](C)CC)C(C)C)[C@@H](C)O)C(=O)N[C@@H](CCCCN)C(=O)N[C@@H](CCCCN)C(=O)N[C@@H](CC(C)C)C(=O)N[C@@H](CCC(=O)O)C(=O)N[C@@H](CCC(=O)O)C(=O)N[C@@H](CO)C(=O)N[C@@H](Cc1ccc(O)cc1)C(=O)N[C@H](C(=O)N[C@@H](CC(=O)O)C(=O)N[C@@H](CC(C)C)C(=O)N[C@@H](CCCCN)C(=O)N[C@@H](CCC(=O)O)C(=O)N[C@@H](CC(C)C)C(N)=O)[C@@H](C)CC [EK1] | > 25000 | > 5000 | > 5000 | > 5000 | > 5000 | > 5000 | > 5000 | > 5000 | > 5000 | > 5000 | > 5000 | > 5000 | > 5000 | > 5000 | > 12500 | > 12500 | none of them at a concentration of 10 or 25 μM showed significant cytotoxic effects | none of them at a concentration of 10 or 25 μM showed significant cytotoxic effects | – | – | IC50 ([2]; HIV-1 Env JRFL, subtype B, triplicate, repeated three times, read-out: Cell fusion (IC50±SD)): > 5000 nM; IC50 [2, 29]: > 5000 nM; IC50 [3]: > 25000 nM; IC50 [10]: > 12500 nM; Complex formation with gp41 HR1-derived peptides N42, N36, N38 by size-exclusion chromatography [11]: could form peptide complexes; IC50 [12]: > 5000 nM; IC50 [7]: > 25000 nM; IC50 [13]: > 12500 nM
Enfuvirtide | – | – | – | – | – | – | – | – | – | – | – | – | – | – | 390 | 480 | – | – | none was found to have inhibitory activity | potently inhibited HIV-1 | –
SLDQINVTFLDLEYEMKKLEEAIKKLEESYIDLKEL-GSGSG-PEG4-C(Chol) [EK1C4] | – | – | – | – | – | – | – | – | – | – | – | – | – | – | – | – | none of them at a concentration of 10 or 25 μM showed significant cytotoxic effects | none of them at a concentration of 10 or 25 μM showed significant cytotoxic effects | – | – | –
albuvirtide | – | – | – | – | – | – | – | – | – | – | – | – | – | – | – | – | – | – | none was found to have inhibitory activity | potently inhibited HIV-1 | –
sifuvirtide | – | – | – | – | – | – | – | – | – | – | – | – | – | – | – | – | – | – | none was found to have inhibitory activity | potently inhibited HIV-1 | –
